Reference: PubChem BioAssay (NCI)
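Briefly, cells in 96-well plates were exposed to five compound concentrations for 48 h, and endpoints were estimated by linear interpolation. GI50 is the concentration that inhibits growth by half. The concentration for full growth arrest is given as TGI.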

Legend:
Assay in all cases: NCI tumour cell line growth inhibition, 48 h; in the data active = GI50 below about 0.43 µM; inactive = the rest
COLO 205 colon = test system: COLO 205 colon
MOLT-4 leukemia = test system: MOLT-4 leukemia
A498 renal = test system: A498 renal
SF-539 CNS = test system: SF-539 CNS
U251 CNS = test system: U251 CNS
SR leukemia = test system: SR leukemia
ACHN renal = test system: ACHN renal
RPMI-8226 leukemia = test system: RPMI-8226 leukemia
KM12 colon = test system: KM12 colon
TK-10 renal = test system: TK-10 renal

Cc1noc(C)c1-c1cnc2c(-c3ccc(C(=O)O)cc3)cn([C@@H](C)c3ccccn3)c2c1
1.87 µM: TGI (A498 renal)
inactive: GI50 (MOLT-4 leukemia) 12.6 µM | GI50 (SF-539 CNS) 0.842 µM | GI50 (U251 CNS) 3.38 µM | GI50 (SR leukemia) 0.838 µM | GI50 (ACHN renal) 1.38 µM | GI50 (KM12 colon) 2.73 µM
> 100 µM: TGI (COLO 205 colon) | TGI (MOLT-4 leukemia) | TGI (SF-539 CNS) | TGI (U251 CNS) | TGI (SR leukemia) | TGI (ACHN renal) | TGI (RPMI-8226 leukemia) | TGI (KM12 colon) | TGI (TK-10 renal)
active: GI50 (COLO 205 colon) 0.413 µM | GI50 (A498 renal) 0.196 µM | GI50 (RPMI-8226 leukemia) 0.155 µM | GI50 (TK-10 renal) 0.405 µM

C/C(CC(=O)Nc1ccc(NC(=O)C/C(C)=N\NC(N)=O)cc1)=N/NC(N)=O
55.5 µM: TGI (RPMI-8226 leukemia)
> 79.7 µM: TGI (COLO 205 colon)
97.8 µM: TGI (MOLT-4 leukemia)
> 62.5 µM: TGI (SR leukemia)
> 100 µM: TGI (A498 renal) | TGI (SF-539 CNS) | TGI (U251 CNS) | TGI (ACHN renal) | TGI (KM12 colon) | TGI (TK-10 renal)

CCc1nn2ncccc2c1-c1ccnc(NC2CC2)n1
inactive: GI50 (COLO 205 colon) > 25 µM | GI50 (MOLT-4 leukemia) > 25 µM | GI50 (A498 renal) 9.73 µM | GI50 (SF-539 CNS) > 25 µM | GI50 (U251 CNS) > 25 µM | GI50 (SR leukemia) > 25 µM | GI50 (ACHN renal) > 25 µM | GI50 (RPMI-8226 leukemia) > 25 µM | GI50 (KM12 colon) > 25 µM | GI50 (TK-10 renal) > 25 µM
> 25 µM: TGI (COLO 205 colon) | TGI (MOLT-4 leukemia) | TGI (A498 renal) | TGI (SF-539 CNS) | TGI (U251 CNS) | TGI (SR leukemia) | TGI (ACHN renal) | TGI (RPMI-8226 leukemia) | TGI (KM12 colon) | TGI (TK-10 renal)
